Measured values published in patent US20190062671A1, “PERFUME COMPOSITIONS” (Givaudan SA, priority 2016, published 2019).
Entries after “also recorded” stand apart in the source; their conditions may differ.

Assays:
KeratinoSens cells = experiment: Cytotoxicity / cellular viability in the KeratinoSens assay; format: cell-based; settings: single chemicals, 48 h
Description: (§1) Compounds were tested using the commercial KeratinoSens® assay for skin sensitization. The KeratinoSens® test compares the potential skin sensitization risk of chemicals. […] KeratinoSens® cells were grown for 24 h in 96-well plates. The medium was then replaced with medium containing the test chemical and the solvent dimethylsulfoxide (DMSO) at a final level of 1% (v/v). Each compound was tested at 12 binary dilutions in the range from 0.98 to 2000 μM. Cells were incubated for 48 h with the test agents, and then luciferase activity and cytotoxicity were determined. This full procedure was repeated three times for each chemical. For each chemical in each repetition and at each concentration, the gene induction compared to DMSO controls and the wells with statistically significant induction over the threshold of 1.5 (i.e. 50% enhanced gene activity) were determined. Furthermore, the maximal fold-induction (Imax) and the EC1.5 value (concentration in μM for induction above the threshold) were calculated.
(§2) All compositions were tested in the concentration range from 0.2-400 ppm (parts per million in weights per volume).

[1] = tested on: Nrf2-dependent luciferase (ARE-element of the gene AKR1C2) in KeratinoSens cell line; experiment: KeratinoSens assay, luciferase gene induction (OECD TG 442d); settings: single chemicals; for Rating in the KeratinoSens assay (skin sensitization): threshold 1.5-fold induction
Description: The level of skin sensitization can reliably and quantitatively be measured experimentally by the KeratinoSens® method, which measures the induction of Nrf2-dependent luciferase in a skin cell line.
as §1, §2

[2] = target: test peptide Cor1C-420 (Ac-NKKCDLF) (Homo sapiens, UniProt Q9ULV4, I423F); experiment: Modified direct peptide reactivity assay with LC-MS detection of peptide adducts; settings: for Peptide reactivity: quantification, % of parent peptide modified: pH 7.5
Description: Alternatively, the sensitization potential can be quantified by measuring the reactivity of test chemicals with peptides.
It is based on the fact that allergenic chemicals must react with a peptide/protein in order to be immunogenic.
The samples were incubated for 24 h at 37° C. and analysed by LC-MS analysis on a VELOS PRO Mass spectrometer (Thermo […], San Jose, Calif., U.S.A.) operated in the ESI(+) mode.
Mass spectra were recorded from 200-2000 amu. A ZORBAX Eclipse XDB-C18 column, 2.1 mm ID, 150 mm, 5-Micron (Agilent Technologies) was used. The mobile phase consisted of H2O (A) and methanol (B) each containing 0.1% formic acid (v/v). The solvent flow was 250 μl/min and the following gradient (ratio A:B) was used: 0 min, 95:5; 2 min, 40:60; 10 min, 2:98; 12 min, 2:98. The integration was performed with Xcalibur Quan Browser™.
In order to detect formation of modified peptides, the specific ion trace for a new adduct with the mass of the test chemical added to the test peptide is extracted, and the peak of the peptide-adduct is integrated. Peptide adduct formation is a particular sensitive endpoint to determine reactive, and thus allergenic nature of compounds.

[3] = 1 mM test chemical, 0.1 mM peptide, 24 h at 37° C.

Peptide reactivity: quantification, % of parent peptide modified ([2]; 24 h, 1 mM) | Imax (fold maximal gene induction) ([1]; 0.98 to 2000 μM, 48 h) | Concentration for 1.5-fold gene induction (EC 1.5 in μM) ([1]; 48 h, n.i. = no induction above threshold of 1.5 (negative rating)) | Peptide reactivity: adduct observation [2, 3] | Peptide reactivity: quantification, % of parent peptide modified [2, 3] | Peptide reactivity: adduct observation ([2]; 1 mM test chemical, 0.1 mM peptide, 24 h at 37° C., listed as II) | Peptide reactivity / adduct amount, fold lower as compared to Citral ([2]; relative to Citral) | SMILES | Concentration for 50% Cytotoxicity (KeratinoSens cells) | Rating in the KeratinoSens assay (skin sensitization) [1]
8.1% of parent | – | – | – | – | – | – | CC(C)=CCCC(C)=CC=O [Citral, 3,7-dimethyl-2,6-octadienal, reference compound] | 95.5 µM | highly active
– | 1.40 fold | n.i. | only traces were formed | observed, 0.3% of parent | Extremely low activity, | 27 fold | CC(C)=CCC(C)/C=C(\C)C=O (centres unmarked) [2,4,7-trimethyl-2,6,-octadienal] | 317.8 µM | non-sensitizing; also recorded: does not surpass the threshold for a positive rating up to the top dose
